Assay results taken from PubChem BioAssay (NCI).
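Each compound was tested at five concentrations against cells in 96-well plates for 48 hours. GI50: concentration for 50% inhibition of growth. TGI denotes the concentration required for complete inhibition of growth.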

Assays:
Experiment in all cases: DTP human tumour cell line panel, 48 h
HT29 colon = tested on: HT29 colon
HOP-62 NSCLC = tested on: HOP-62 NSCLC
HCC-2998 colon = tested on: HCC-2998 colon
K-562 leukemia = tested on: K-562 leukemia
HS 578T breast = tested on: HS 578T breast
NCI-H226 lung = tested on: NCI-H226 lung
MDA-MB-435 = tested on: MDA-MB-435
CCRF-CEM leukemia = tested on: CCRF-CEM leukemia
SK-MEL-5 melanoma = tested on: SK-MEL-5 melanoma
SF-295 CNS = tested on: SF-295 CNS
U251 CNS = tested on: U251 CNS
EKVX NSCLC = tested on: EKVX NSCLC
SW-620 colon = tested on: SW-620 colon
SN12C renal = tested on: SN12C renal
NCI-H23 lung = tested on: NCI-H23 lung
BT-549 breast = tested on: BT-549 breast
SK-OV-3 ovarian = tested on: SK-OV-3 ovarian
SNB-75 CNS = tested on: SNB-75 CNS
KM12 colon = tested on: KM12 colon
MOLT-4 leukemia = tested on: MOLT-4 leukemia
UACC-257 melanoma = tested on: UACC-257 melanoma
A549 NSCLC = tested on: A549 NSCLC
SF-268 CNS = tested on: SF-268 CNS
HCT-116 colon = tested on: HCT-116 colon
M14 melanoma = tested on: M14 melanoma
PC-3 prostate = tested on: PC-3 prostate
SK-MEL-28 melanoma = tested on: SK-MEL-28 melanoma
HL-60(TB) leukemia = tested on: HL-60(TB) leukemia
MALME-3M melanoma = tested on: MALME-3M melanoma
NCI-H522 lung = tested on: NCI-H522 lung
SK-MEL-2 melanoma = tested on: SK-MEL-2 melanoma
SF-539 CNS = tested on: SF-539 CNS
NCI/ADR-RES ovarian = tested on: NCI/ADR-RES ovarian
OVCAR-5 ovarian = tested on: OVCAR-5 ovarian
TK-10 renal = tested on: TK-10 renal
MCF7 breast = tested on: MCF7 breast
HOP-92 NSCLC = tested on: HOP-92 NSCLC
ACHN renal = tested on: ACHN renal
LOX IMVI melanoma = tested on: LOX IMVI melanoma
OVCAR-4 ovarian = tested on: OVCAR-4 ovarian
OVCAR-8 ovarian = tested on: OVCAR-8 ovarian
OVCAR-3 ovarian = tested on: OVCAR-3 ovarian
RPMI-8226 leukemia = tested on: RPMI-8226 leukemia
A498 renal = tested on: A498 renal
SR leukemia = tested on: SR leukemia
T-47D breast = tested on: T-47D breast
DU-145 prostate = tested on: DU-145 prostate
IGROV1 ovarian = tested on: IGROV1 ovarian
NCI-H460 lung = tested on: NCI-H460 lung
MDA-MB-231 breast = tested on: MDA-MB-231 breast
CAKI-1 renal = tested on: CAKI-1 renal
RXF 393 renal = tested on: RXF 393 renal
HCT-15 colon = tested on: HCT-15 colon
786-0 renal = tested on: 786-0 renal
UACC-62 melanoma = tested on: UACC-62 melanoma
SNB-19 CNS = tested on: SNB-19 CNS
UO-31 renal = tested on: UO-31 renal
COLO 205 colon = tested on: COLO 205 colon

Structure (SMILES): Cn1ccnc1C(=O)/C=C/c1ccc(CC(=O)Nc2ccc(F)cc2)cc1
- GI50 (HT29 colon): 2.27 µM
- TGI (HT29 colon): 8.21 µM
- GI50 (HOP-62 NSCLC): 4.68 µM
- TGI (HOP-62 NSCLC): 19 µM
- GI50 (HCC-2998 colon): 3.78 µM
- TGI (HCC-2998 colon): 7.95 µM
- GI50 (K-562 leukemia): 0.823 µM
- TGI (K-562 leukemia): > 25 µM
- GI50 (HS 578T breast): 15 µM
- TGI (HS 578T breast): > 25 µM
- GI50 (NCI-H226 lung): 8.57 µM
- TGI (NCI-H226 lung): > 25 µM
- GI50 (MDA-MB-435): 4.25 µM
- TGI (MDA-MB-435): 14.9 µM
- GI50 (CCRF-CEM leukemia): 2 µM
- TGI (CCRF-CEM leukemia): > 25 µM
- GI50 (SK-MEL-5 melanoma): 4.45 µM
- TGI (SK-MEL-5 melanoma): 8.09 µM
- GI50 (SF-295 CNS): 4.55 µM
- TGI (SF-295 CNS): 19.1 µM
- GI50 (U251 CNS): 1.4 µM
- TGI (U251 CNS): 4.81 µM
- GI50 (EKVX NSCLC): 5.5 µM
- TGI (EKVX NSCLC): > 25 µM
- GI50 (SW-620 colon): 1.97 µM
- TGI (SW-620 colon): 12 µM
- GI50 (SN12C renal): 1.62 µM
- TGI (SN12C renal): 6.26 µM
- GI50 (NCI-H23 lung): 3.04 µM
- TGI (NCI-H23 lung): 8.56 µM
- GI50 (BT-549 breast): 1.32 µM
- TGI (BT-549 breast): 6.01 µM
- GI50 (SK-OV-3 ovarian): 9.81 µM
- TGI (SK-OV-3 ovarian): > 25 µM
- GI50 (SNB-75 CNS): 3.74 µM
- TGI (SNB-75 CNS): > 25 µM
- GI50 (KM12 colon): 1.62 µM
- TGI (KM12 colon): 5.52 µM
- GI50 (MOLT-4 leukemia): 2.32 µM
- TGI (MOLT-4 leukemia): 18.1 µM
- GI50 (UACC-257 melanoma): 6.99 µM
- TGI (UACC-257 melanoma): 21.6 µM
- GI50 (A549 NSCLC): 6.43 µM
- TGI (A549 NSCLC): > 25 µM
- GI50 (SF-268 CNS): 2.89 µM
- TGI (SF-268 CNS): 13.5 µM
- GI50 (HCT-116 colon): 0.99 µM
- TGI (HCT-116 colon): 3.68 µM
- GI50 (M14 melanoma): 3.23 µM
- TGI (M14 melanoma): 7.95 µM
- GI50 (PC-3 prostate): 1.99 µM
- TGI (PC-3 prostate): 7.96 µM
- GI50 (SK-MEL-28 melanoma): 4.47 µM
- TGI (SK-MEL-28 melanoma): 9.95 µM
- GI50 (HL-60(TB) leukemia): 1.6 µM
- TGI (HL-60(TB) leukemia): 12.4 µM
- GI50 (MALME-3M melanoma): 5.28 µM
- TGI (MALME-3M melanoma): 14.9 µM
- GI50 (NCI-H522 lung): 3.34 µM
- TGI (NCI-H522 lung): 8.41 µM
- GI50 (SK-MEL-2 melanoma): 7.01 µM
- TGI (SK-MEL-2 melanoma): 23.7 µM
- GI50 (SF-539 CNS): 3.59 µM
- TGI (SF-539 CNS): 7.12 µM
- GI50 (NCI/ADR-RES ovarian): 4.24 µM
- TGI (NCI/ADR-RES ovarian): > 25 µM
- GI50 (OVCAR-5 ovarian): 4.36 µM
- TGI (OVCAR-5 ovarian): 10.9 µM
- GI50 (TK-10 renal): 10.5 µM
- TGI (TK-10 renal): > 25 µM
- GI50 (MCF7 breast): 1.04 µM
- TGI (MCF7 breast): 8.59 µM
- GI50 (HOP-92 NSCLC): 4.51 µM
- TGI (HOP-92 NSCLC): 13 µM
- GI50 (ACHN renal): 5.74 µM
- TGI (ACHN renal): > 25 µM
- GI50 (LOX IMVI melanoma): 0.712 µM
- TGI (LOX IMVI melanoma): 3.9 µM
- GI50 (OVCAR-4 ovarian): 5.68 µM
- TGI (OVCAR-4 ovarian): > 25 µM
- GI50 (OVCAR-8 ovarian): 5.71 µM
- TGI (OVCAR-8 ovarian): > 25 µM
- GI50 (OVCAR-3 ovarian): 0.962 µM
- TGI (OVCAR-3 ovarian): 3.67 µM
- GI50 (RPMI-8226 leukemia): 1.02 µM
- TGI (RPMI-8226 leukemia): 5.44 µM
- GI50 (A498 renal): 5.65 µM
- TGI (A498 renal): 15.3 µM
- GI50 (SR leukemia): 0.517 µM
- TGI (SR leukemia): > 25 µM
- GI50 (T-47D breast): 8.34 µM
- TGI (T-47D breast): > 25 µM
- GI50 (DU-145 prostate): 1.24 µM
- TGI (DU-145 prostate): 5.97 µM
- GI50 (IGROV1 ovarian): 2.93 µM
- TGI (IGROV1 ovarian): 16.6 µM
- GI50 (NCI-H460 lung): 1.8 µM
- TGI (NCI-H460 lung): 9.89 µM
- GI50 (MDA-MB-231 breast): 2.96 µM
- TGI (MDA-MB-231 breast): 12.8 µM
- GI50 (CAKI-1 renal): 3.14 µM
- TGI (CAKI-1 renal): > 25 µM
- GI50 (RXF 393 renal): 3.89 µM
- TGI (RXF 393 renal): 7.97 µM
- GI50 (HCT-15 colon): 1.29 µM
- TGI (HCT-15 colon): 9.26 µM
- GI50 (786-0 renal): 1.37 µM
- TGI (786-0 renal): 7.09 µM
- GI50 (UACC-62 melanoma): 3.51 µM
- TGI (UACC-62 melanoma): 7.75 µM
- GI50 (SNB-19 CNS): 2.74 µM
- TGI (SNB-19 CNS): 7.02 µM
- GI50 (UO-31 renal): 1.72 µM
- TGI (UO-31 renal): 5.16 µM
- GI50 (COLO 205 colon): 4.39 µM
- TGI (COLO 205 colon): 10.3 µM
